The subject of assay [1] is TNF-α. Description: Determination of TNF-α secretion in LPS-stimulated mononuclear cells of human peripheral blood in vitro (ELISA). In kind it is cell-based. The settings on record: human PBMC, LPS 1 μg/mL, 18 to 24 hours, TNF-α in supernatant by ELISA. How it is done:
Determination of TNF-α and IL-1β Secretion in Mononuclear Cells of Human Peripheral Blood In Vitro
Peripheral blood mononuclear cells (PMBC) were prepared from heparinized whole blood after separation of PMBC on Ficoll-Hypaque (Amersham-Pharmacia). For the determination of TNF-α level, 3.5-5×10^4 cells were cultured in a total volume of 200 μl within a period of 18 to 24 hours on microtiter flat bottom plates (96 wells, Falcon) in RPMI 1640 medium supplemented with 10% of heat-inactivated human AB serum (Croatian Centre For Transfusion Medicine, Zagreb), 100 units/mL of penicillin, […] and 20 mM HEPES (Invitrogen Life Technologies). The cells were incubated at 37° C. in an atmosphere with 5% CO2 and 90% moisture. The cells in a negative control were cultured only in the medium (NC), while the secretion of TNF-α in a positive control was stimulated by the addition of 1 μg/mL lipopolysaccharide (LPS, E. coli serotype 0111:B4, SIGMA) (PC) and the effect of the tested substances on TNF-α secretion was tested after their addition to cell cultures stimulated with LPS (TS). […] The test sensitivity was <3 pg/mL TNF-α. The determination of IL-1β level was performed as described for TNF-α determination, only that 1×10^5 cells/well and 0.1 ng/mL of LPS were used. IL-1β level was determined by ELISA (R&D Systems). […] IC-50 was calculated using Graph Pad Prism Software. Determination of TNF-α Secretion by RAW 264.7 Cells
For orientation: ELISA stands for enzyme-linked immunosorbent assay.

In assay [2] the target is T1, Human Prostaglandin-H Synthase—1 (hPGH-1) (Homo sapiens, UniProt P23219).
T1 construct: expressed in transfected cells; host or cells: COS-7 cells (ATCC), transient transfection with Lipofectamine 2000
The assay can be described thus: Human prostaglandin-H synthase-1 (hPGH-1) inhibition assay in transfected COS-7 cells (PGE-2 readout). In kind it is cell-based. The settings on record: COS-7 cells transfected with hPGH-1, arachidonic acid 20 μM, PGE-2 measured. How it is done: (§1) The cells were grown in 10% fetal bovine serum (FBS) in DMEM medium (Invitrogen Life Technologies) at 37° C. in an atmosphere with 5% CO2 and 90% moisture. 20 000 cells/well were plated in 96 well plate (Falcon). The cells in a negative control were cultured only in the medium (NC), while the secretion of TNF-α in a positive control was stimulated by the addition of 500 pg/mL lipopolysaccharide (LPS, E. coli serotype 0111:B4, SIGMA) (PC) and the effect of the tested substances on TNF-α secretion was tested after their addition to cell cultures stimulated with LPS (TS). […] Human Prostaglandin-H Synthase—1 (hPGH-1) and Human Prostaglandin-H Synthase—2 (hPGH-2) Inhibition Assay
(§2) Genes coding hPGH-1 and hPGH-2 were amplified with PCR using Platinum pfx DNA polymerase (Invitrogen Life Technologies) from human placenta cDNA library (Stratagene). Primer sequences used for hPGH-1 are: • 5′ […] 3′ (SEQ ID NO: 1) and • 5′ […] 3′ (SEQ ID NO: 2); for hPGH-2 • 5′ […] 3′ (SEQ ID NO: 3) and • 5′ […] 3′ (SEQ ID NO: 4). PCR products were cloned into HindIII and BamHI restriction sites of pcDNA3.1 (Hygro(+) plasmid (Invitrogen Life Technologies), sequences were confirmed by sequencing.
(§3) Transfection was performed on COS-7 cells (ATCC), cells were grown in 10% foetal bovine serum (FBS) in DMEM medium (Invitrogen Life Tecnologies), 37° C. in an atmosphere with 5% CO2 and 90% moisture, to full confluency in 24 well plate (Falcon). 1 μg plasmid DNA (pcDNA Hygro 3.1 (+) containing PGH-1 or PGH-2 gene, or pcDNA Hygro 3.1 (+) for negative control samples) was combined with 1,5 μl Lipofectamine 2000 (Invitrogen Life Technologies), following manufacturer's recommendations. […] After 30 minutes supernatants were removed and PGE-2 was measured with PGE-2 assay kit (Cayman) following manufacturer's instructions.
(§4) % inhibition was calculated by the following equation: % inhibition=(1−sample PGE-2 concentration/positive control PGE-2 concentration)*100 In Vivo Model of LPS-Induced Exccessive Secretion of TNF-α in Mice

Assay [3] deals with T2, Human Prostaglandin-H Synthase—2 (hPGH-2) (Homo sapiens, UniProt P35354).
T2 construct: expressed in transfected cells; host or cells: COS-7 cells (ATCC), transient transfection with Lipofectamine 2000
T2 sequence (P35354 18-604): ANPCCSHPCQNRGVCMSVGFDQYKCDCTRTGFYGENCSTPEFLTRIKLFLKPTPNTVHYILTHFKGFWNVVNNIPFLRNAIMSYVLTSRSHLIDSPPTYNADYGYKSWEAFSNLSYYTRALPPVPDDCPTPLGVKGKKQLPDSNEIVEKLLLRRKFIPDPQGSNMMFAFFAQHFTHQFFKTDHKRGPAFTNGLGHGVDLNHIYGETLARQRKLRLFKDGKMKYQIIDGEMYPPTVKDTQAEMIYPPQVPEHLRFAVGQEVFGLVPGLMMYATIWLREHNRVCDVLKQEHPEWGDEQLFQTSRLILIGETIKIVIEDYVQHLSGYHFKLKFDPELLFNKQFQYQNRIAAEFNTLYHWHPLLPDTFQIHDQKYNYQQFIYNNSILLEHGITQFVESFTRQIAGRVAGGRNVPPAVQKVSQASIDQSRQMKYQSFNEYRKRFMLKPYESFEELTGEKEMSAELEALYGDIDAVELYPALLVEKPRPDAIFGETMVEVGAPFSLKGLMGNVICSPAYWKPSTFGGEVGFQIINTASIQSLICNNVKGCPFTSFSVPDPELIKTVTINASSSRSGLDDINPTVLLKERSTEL
Description: Human prostaglandin-H synthase-2 (hPGH-2) inhibition assay in transfected COS-7 cells (PGE-2 readout). Format: cell-based. The settings on record: COS-7 cells transfected with hPGH-2, arachidonic acid 20 μM, PGE-2 measured. How it is done: as §1, §2, §3, §4

Assay [4] relates to TNF-α. Description: In vivo model of LPS-induced excessive secretion of TNF-α in mice. The settings on record: male BALB/c mice, substance p.o. 30 minutes prior to i.p. LPS 25 μg/animal, plasma TNF-α two hours later; dose not given. How it is done: as §4
TNF-α secretion in mice was induced according to the previously described method (Badger A. M. Et al., J. of Pharmac. and Env. Therap. 279 1996 1453-1461). In the test, male BALB/c mice at an age of 8 to 12 weeks in groups of 6 to 10 animals were used. Animals were treated p.o. either only with the solvent (in a negative and a positive control) or with solutions of the substance 30 minutes prior to the i.p. treatment with LPS (E. coli serotype 0111:B4, Sigma) in a dose of 25 μg/animal. Two hours later the animals were euthanized by means of i.p. injection of Roumpun (Bayer) and Ketanest (Park-Davis). […] The TNF-α level in the plasma was determined by ELISA (Biosource, R&D Systems) according to the process prescribed by the manufacturer. The test sensitivity was <3 pg/mL TNF-α. The percentage inhibition of TNF-α production was calculated by the following equation: % inhibition=[1−(TS—NC)/(PC—NC)]*100

T1 sequence (P23219 24-599): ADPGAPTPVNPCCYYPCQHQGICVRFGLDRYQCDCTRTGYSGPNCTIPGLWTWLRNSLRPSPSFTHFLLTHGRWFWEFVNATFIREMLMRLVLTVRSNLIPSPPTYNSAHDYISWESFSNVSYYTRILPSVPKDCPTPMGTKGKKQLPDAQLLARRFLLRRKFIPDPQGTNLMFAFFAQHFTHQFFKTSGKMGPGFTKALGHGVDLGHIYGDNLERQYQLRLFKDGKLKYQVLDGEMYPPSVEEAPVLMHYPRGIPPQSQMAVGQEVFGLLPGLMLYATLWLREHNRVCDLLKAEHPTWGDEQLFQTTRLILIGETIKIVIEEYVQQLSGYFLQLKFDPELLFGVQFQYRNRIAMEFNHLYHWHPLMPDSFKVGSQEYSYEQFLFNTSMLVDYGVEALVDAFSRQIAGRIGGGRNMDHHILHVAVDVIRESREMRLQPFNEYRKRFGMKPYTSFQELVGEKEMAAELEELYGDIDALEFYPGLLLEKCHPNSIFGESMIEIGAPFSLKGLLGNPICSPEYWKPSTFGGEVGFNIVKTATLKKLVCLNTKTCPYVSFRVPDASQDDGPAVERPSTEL

In the case of `CC[C@H]1OC(=O)[C@H](C)[C@@H](O[C@H]2C[C@@](C)(OC)[C@@H](O)[C@H](C)O2)[C@H](C)[C@@H](O[C@@H]2O[C@H](C)C[C@H](N(C)C)[C@H]2O)[C@](C)(O)C[C@@H](C)CN(CCCNC(=O)Cc2c(C)n(C(=O)c3ccc(Cl)cc3)c3ccc(OC)cc23)[C@H](C)[C@@H](O)[C@]1(C)O` [Ex. 4], the IC50 (in general, the concentration at which inhibition is half-maximal) was 1 µM with TNF-α [1], > 30 µM in assay [2] and 1 µM in assay [3]. The “LPS induced excessive secretion of TNF-α % of inhibition” value in the assay with TNF-α [4] is 70%.
In the case of `CC[C@H]1OC(=O)[C@H](C)[C@@H](O[C@H]2C[C@@](C)(OC)[C@@H](O)[C@H](C)O2)[C@H](C)[C@@H](O[C@@H]2O[C@H](C)C[C@H](N(C)C)[C@H]2O)[C@](C)(O)C[C@@H](C)CN(CCCNC(=O)[C@@H](C)c2ccc(CC(C)C)cc2)[C@H](C)[C@@H](O)[C@]1(C)O` [Ex. 5], the IC50 was 1 µM in the assay with TNF-α [1], 10 µM in assay [2] and 10 µM in assay [3]. For the same compound, the “LPS induced excessive secretion of TNF-α % of inhibition” value in the assay with TNF-α [4] came out at 66%.
Take `CC[C@H]1OC(=O)[C@H](C)[C@@H](O)[C@H](C)[C@@H](O[C@@H]2O[C@H](C)C[C@H](N(C)C)[C@H]2O)[C@](C)(O)C[C@@H](C)CN(CCCNC(=O)Cc2c(C)n(C(=O)c3ccc(Cl)cc3)c3ccc(OC)cc23)[C@H](C)[C@@H](O)[C@]1(C)O` [Ex. 10]: the IC50 with TNF-α [1] was 10 µM; in assay [2] it was > 30 µM; in assay [3], > 30 µM. Also, the “LPS induced excessive secretion of TNF-α % of inhibition” value in the assay on TNF-α [4] came out at 47%.
With `CC(C)Cc1ccc([C@@H](C)C(=O)O)cc1` [S-(+)-Ibuprofen, S-(+)-ibuprofen, reference compound], in the assay with TNF-α [1], the half-inhibitory concentration (IC50) is > 30 µM.
